Measured values reported in patent US8546579B2, “Bicycloheteroaryl compounds as P2X7 modulators and uses thereof” (Evotec (US) Inc., priority 2006, dated 2013).

target: T1, P2X7 receptor (Homo sapiens, UniProt Q99572); assay: IL-1β release assay in differentiated THP-1 cells stimulated with BzATP (Example 9); type: cell-based; parameters: inhibition: dose or concentration left out as unconfirmed; details: 0.1 μM compound; differentiated THP-1 cells, BzATP 250 uM; "*" class symbols; read-out: IL-1β % Inhib. ("*" symbols: at 0.1 μM)
T1 construct: host or cells: THP-1 cells differentiated with LPS and IFN-γ
T1 sequence (Q99572 1-595): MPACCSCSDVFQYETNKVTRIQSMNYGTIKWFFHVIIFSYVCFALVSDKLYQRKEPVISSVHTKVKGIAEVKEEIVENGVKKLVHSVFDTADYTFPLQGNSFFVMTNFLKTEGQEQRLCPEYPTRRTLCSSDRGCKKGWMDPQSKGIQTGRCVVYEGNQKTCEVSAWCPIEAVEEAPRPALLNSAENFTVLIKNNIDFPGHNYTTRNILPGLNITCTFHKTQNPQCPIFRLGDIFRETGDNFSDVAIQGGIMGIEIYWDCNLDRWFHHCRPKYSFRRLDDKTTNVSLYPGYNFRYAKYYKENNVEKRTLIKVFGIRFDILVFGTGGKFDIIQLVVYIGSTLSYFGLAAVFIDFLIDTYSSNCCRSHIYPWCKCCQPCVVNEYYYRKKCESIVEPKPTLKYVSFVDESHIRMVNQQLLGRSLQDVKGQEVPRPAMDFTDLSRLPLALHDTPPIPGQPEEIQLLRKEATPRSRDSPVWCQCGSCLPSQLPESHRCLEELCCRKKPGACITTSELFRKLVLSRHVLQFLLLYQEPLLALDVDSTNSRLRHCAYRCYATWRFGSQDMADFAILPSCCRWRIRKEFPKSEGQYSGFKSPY
In short: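 IC50 derived by four-parameter logistic fit of percent inhibition of IL-1β release, measured by ELISA after 45 min stimulation with 250 uM BzATP. Cells: THP-1 differentiated 16 h with 100 ng/mL LPS plus IFN-γ, LPS-primed 2 h, compound added 30 min beforehand.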

| inhibition at 0.1 µM | SMILES |
| --- | --- |
| 26 to 50% | CC(c1ccccn1)n1ccc2c(NC(=O)[C@H](C)c3ccc(Cl)c(Cl)c3)cccc2c1=O (stereo partly shown) [Compound 1636] |

same assay, conditions: 0.1 μM compound; differentiated THP-1 cells, BzATP 250 uM; '*' class symbols; read-out: IL-1β % Inhib. (asterisk classes, 0.1 μM)

| inhibition at 0.1 µM | SMILES |
| --- | --- |
| 0 to 25% | CCOc1ccc(C(=O)Nc2cccc3c(=O)n(CCN(C)C)ccc23)cc1 [Compound 1146] |
| 0 to 25% | COc1cccc(CCC(=O)Nc2cccc3c(=O)n(CCN4CCOCC4)ccc23)c1 [Compound 1041] |

same assay, conditions: 0.3 μM compound; differentiated THP-1 cells, BzATP 250 uM; "+" class symbols; read-out: IL-1β % Inhib. @ 0.3 μM

| inhibition at 0.3 µM | SMILES |
| --- | --- |
| ≥ 76% | CC(C)(C)OC(=O)N1CCC[C@H]1Cn1ccc2c(NC(=O)CC3CCCCCC3)cccc2c1=O [Compound 1619] |
| 0 to 25% | CC(C)C(C(=O)Nc1cccc2c(=O)n(CCN(C)C)ccc12)c1ccc(Cl)cc1 (stereo not shown) [Compound 1612] |
| ≥ 76% | CC(C)(C)OC(=O)N1CCC[C@H]1Cn1ccc2c(NC(=O)Cc3ccc(Cl)c(C(F)(F)F)c3)cccc2c1=O [Compound 1621] |
| 0 to 25% | CN(C)CCn1ccc2c(NC(=O)Cc3ccc(Cl)cc3C(F)(F)F)cccc2c1=O [Compound 1611] |

same assay, conditions: 0.3 μM compound; differentiated THP-1 cells, BzATP 250 uM; '+' class symbols; read-out: IL-1β % Inhib. @ 0.3 μM

| inhibition at 0.3 µM | SMILES |
| --- | --- |
| 0 to 25% | Cc1ccc(C)c(CC(=O)Nc2cccc3c(=O)n(CC4CCOCC4)ccc23)c1 [Compound 1028] |
| 0 to 25% | Cc1ccccc1C(=O)Nc1cccc2c(=O)n(CC3CCOCC3)ccc12 [Compound 1085] |
| 0 to 25% | O=C(Nc1cccc2c(=O)n(CC3CCOCC3)ccc12)c1cc2ccccc2o1 [Compound 1109] |
| 0 to 25% | CN(C)CCn1ccc2c(NC(=O)c3cc(Cl)ccc3Cl)cccc2c1=O [Compound 1139] |
| 0 to 25% | CCOc1ccccc1CC(=O)Nc1cccc2c(=O)n(CC3CCOCC3)ccc12 [Compound 1126] |
| 0 to 25% | Cc1ccccc1C(=O)Nc1cccc2c(=O)n(CCN(C)C)ccc12 [Compound 1007] |
| 0 to 25% | CN(C)CCn1ccc2c(NC(=O)c3cccc4ccccc34)cccc2c1=O [Compound 1151] |
| ≥ 76% | Cc1ccc(CC(=O)Nc2cccc3c(=O)n(CCN(C)C)ccc23)cc1 [Compound 1005] |
| 0 to 25% | Cc1cccc(C(=O)Nc2cccc3c(=O)n(CC4CCOCC4)ccc23)c1C [Compound 1086] |
| 0 to 25% | CN(C)CCn1ccc2c(NC(=O)c3ccccc3Cl)cccc2c1=O [Compound 1137] |
| 0 to 25% | Cc1ccc(Cl)cc1C(=O)Nc1cccc2c(=O)n(CC3CCOCC3)ccc12 [Compound 1129] |
| 26 to 50% | O=C(CCc1ccccc1Cl)Nc1cccc2c(=O)n(CC3CCOCC3)ccc12 [Compound 1031] |
| 0 to 25% | CC(C)(C)Cn1ccc2c(NC(=O)CCc3ccc4c(c3)OCO4)cccc2c1=O [Compound 1055] |
| 0 to 25% | Cc1c(Cl)cccc1C(=O)Nc1cccc2c(=O)n(CC3CCOCC3)ccc12 [Compound 1120] |
| 0 to 25% | CN(C)CCn1ccc2c(NC(=O)c3ccc4ccccc4c3)cccc2c1=O [Compound 1153] |
| ≥ 76% | O=C(CC1CCCCCC1)Nc1cccc2c(=O)n(Cc3ccc4c(c3)OCCO4)ccc12 [Compound 1013, 2-Cycloheptyl-N-[2-(2,3-dihydro-benzo[1,4]dioxin-6-ylmethyl)-1-oxo-1,2-dihydro-isoquinolin-5-yl]-acetamide] |
| 0 to 25% | Cc1ccc(C(=O)Nc2cccc3c(=O)n(CCN(C)C)ccc23)c(C)c1 [Compound 1141] |

same assay, conditions: 0.3 μM compound; differentiated THP-1 cells, BzATP 250 uM; symbols + to ++++; read-out: IL-1β % Inhib. @ 0.3 μM

| inhibition at 0.3 µM | SMILES |
| --- | --- |
| 26 to 50% | CCOc1ccccc1CC(=O)Nc1cccc2c(=O)n(Cc3cccnc3)ccc12 [Compound 1366] |
| 0 to 25% | Cc1cc(C)cc(CC(=O)Nc2cccc3c(=O)n(CC(C)(C)C)ccc23)c1 [Compound 1276] |
| 0 to 25% | O=C(Cc1ccccc1Cl)Nc1cccc2c(=O)n(CCN3CCOCC3)ccc12 [Compound 1205] |
| 0 to 25% | Cc1ccc(CC(=O)Nc2cccc3c(=O)n(CCN4CCOCC4)ccc23)cc1 [Compound 1214] |
| 0 to 25% | COc1ccc(CC(=O)Nc2cccc3c(=O)n(Cc4cccnc4)ccc23)cc1 [Compound 1355] |
| 0 to 25% | COCCn1ccc2c(NC(=O)c3cccc(C)c3Cl)cccc2c1=O [Compound 1339] |
| 0 to 25% | Cc1ccc(Cl)cc1C(=O)Nc1cccc2c(=O)n(Cc3cccnc3)ccc12 [Compound 1368] |
| 0 to 25% | CC(C)(C)Cn1ccc2c(NC(=O)c3cccc4c3OCCO4)cccc2c1=O [Compound 1272] |
| 0 to 25% | CC(C)(C)Cn1ccc2c(NC(=O)CC3CC4CC[C@H]3C4)cccc2c1=O (stereo partly shown) [Compound 1270] |
| ≥ 76% | COCCn1ccc2c(NC(=O)CC3(O)CC(C)(C)CC(C)(C)C3)cccc2c1=O [Compound 1393] |
| ≥ 76% | CC(=O)OCCn1ccc2c(NC(=O)Cc3ccc(Cl)cc3Cl)cccc2c1=O [Compound 1381] |
| 0 to 25% | Cc1cccc(C(=O)Nc2cccc3c(=O)n(C)ccc23)c1C [Compound 1289] |
| 0 to 25% | O=C(Nc1cccc2c(=O)n(CCN3CCOCC3)ccc12)c1cc2ccccc2o1 [Compound 1216] |
| 0 to 25% | COCCn1ccc2c(NC(=O)c3ccc4c(c3)OCCCO4)cccc2c1=O [Compound 1328] |
| 0 to 25% | COCCn1ccc2c(NC(=O)Cc3cc(C)cc(C)c3)cccc2c1=O [Compound 1331] |
| 0 to 25% | Cc1ccc(CC(=O)Nc2cccc3c(=O)n(Cc4cccnc4)ccc23)cc1 [Compound 1356] |
| 0 to 25% | Cc1cc(C)cc(CC(=O)Nc2cccc3c(=O)n(CCN4CCOCC4)ccc23)c1 [Compound 1228] |
| 0 to 25% | COc1ccc(CCC(=O)Nc2cccc3c(=O)n(CCN4CCOCC4)ccc23)cc1 [Compound 1202] |
| 0 to 25% | O=C(Nc1cccc2c(=O)n(Cc3cccnc3)ccc12)c1ccc2c(c1)OCCCO2 [Compound 1364] |

same assay, conditions: THP-1; read-out: IL-1β % Inhib.

| inhibition | SMILES |
| --- | --- |
| 0 to 25% | CN1CCC(Cn2ccc3c(NC(=O)c4cccc5ccccc45)cccc3c2=O)CC1 [Compound 1469] |
| 0 to 25% | Cc1ccc(CCC(=O)Nc2cccc3c(=O)n(CCCN4CCCC4=O)ccc23)c(C)c1 [Compound 1546] |
| 0 to 25% | Cc1cccc(CCC(=O)Nc2cccc3c(=O)n(CCCN4CCCC4=O)ccc23)c1 [Compound 1542] |
| 0 to 25% | CC(C(=O)Nc1cccc2c(=O)n(CCCN3CCCC3=O)ccc12)c1ccccc1 (stereo not shown) [Compound 1517] |
| 0 to 25% | COc1ccc(C(=O)Nc2cccc3c(=O)n(CC(C)(C)C)ccc23)c(C)c1 [Compound 1405] |
| 0 to 25% | O=C(CCc1ccccc1Cl)Nc1cccc2c(=O)n(CCCN3CCCC3=O)ccc12 [Compound 1501] |
| 0 to 25% | O=C(Nc1cccc2c(=O)n(Cc3cccnc3)ccc12)c1cccc2ccccc12 [Compound 1447] |
| 0 to 25% | Cc1cc(Cl)ccc1C(=O)Nc1cccc2c(=O)n(CC3CCN(C)CC3)ccc12 [Compound 1478] |
| 0 to 25% | COc1c(C)cc(C(=O)Nc2cccc3c(=O)n(CCCN4CCCC4=O)ccc23)cc1C [Compound 1529] |
| 0 to 25% | Cc1cc(Cl)ccc1C(=O)Nc1cccc2c(=O)n(Cc3cccnc3)ccc12 [Compound 1452] |
| 0 to 25% | O=C(Cc1ccccc1Cl)Nc1cccc2c(=O)n(CCCN3CCCC3=O)ccc12 [Compound 1519] |
| 0 to 25% | COc1ccccc1CC(=O)Nc1cccc2c(=O)n(Cc3ccc(OC(F)(F)F)cc3)ccc12 [Compound 1577] |
| 0 to 25% | COc1ccc(CC(=O)Nc2cccc3c(=O)n(Cc4ccc(OC(F)(F)F)cc4)ccc23)cc1OC [Compound 1581] |
| 0 to 25% | O=C(CCc1ccc(Cl)cc1)Nc1cccc2c(=O)n(Cc3cccnc3)ccc12 [Compound 1455] |
| 0 to 25% | Cc1ccccc1C(=O)Nc1cccc2c(=O)n(CC(C)(C)C)ccc12 [Compound 1413] |
| 26 to 50% | CCOc1ccccc1CC(=O)Nc1cccc2c(=O)n(CCCN3CCCC3=O)ccc12 [Compound 1538] |
| 0 to 25% | Cc1cccc(C(=O)Nc2cccc3c(=O)n(CC4CCN(C)CC4)ccc23)c1Cl [Compound 1489] |
| 0 to 25% | CN1CCC(Cn2ccc3c(NC(=O)Cc4cccc5ccccc45)cccc3c2=O)CC1 [Compound 1470] |
| 0 to 25% | Cc1ccccc1C(=O)Nc1cccc2c(=O)n(C)ccc12 [Compound 1419] |
| 26 to 50% | CC(C)(C)Cn1ccc2c(NC(=O)CCc3ccc(Cl)cc3)cccc2c1=O [Compound 1417] |

same assay, conditions: THP-1 cells, BzATP-stimulated IL-1β release, four parameter logistic fit

| IC50 | SMILES |
| --- | --- |
| 410 nM | CCOc1ccccc1CC(=O)Nc1cccc2c(=O)n(Cc3cccnc3)ccc12 [Compound 1366] |
| > 1000 nM | Cc1ccccc1C(=O)Nc1cccc2c(=O)n(CCN(C)C)ccc12 [Compound 1007] |
| 77.8 nM | COCCn1ccc2c(NC(=O)CC3(O)CC(C)(C)CC(C)(C)C3)cccc2c1=O [Compound 1393] |
| 39.6 nM | Cc1ccc(CC(=O)Nc2cccc3c(=O)n(CCN(C)C)ccc23)cc1 [Compound 1005] |
| 34.1 nM | CC(=O)OCCn1ccc2c(NC(=O)Cc3ccc(Cl)cc3Cl)cccc2c1=O [Compound 1381] |
| 67.2 nM | CC(C)(C)OC(=O)N1CCC[C@H]1Cn1ccc2c(NC(=O)CC3CCCCCC3)cccc2c1=O [Compound 1619] |
| > 1000 nM | CC(C)C(C(=O)Nc1cccc2c(=O)n(CCN(C)C)ccc12)c1ccc(Cl)cc1 (stereo not shown) [Compound 1612] |
| 6.86 nM | CC(C)(C)OC(=O)N1CCC[C@H]1Cn1ccc2c(NC(=O)Cc3ccc(Cl)c(C(F)(F)F)c3)cccc2c1=O [Compound 1621] |
| 0.355 nM | O=C(CC1CCCCCC1)Nc1cccc2c(=O)n(Cc3ccc4c(c3)OCCO4)ccc12 [Compound 1013, 2-Cycloheptyl-N-[2-(2,3-dihydro-benzo[1,4]dioxin-6-ylmethyl)-1-oxo-1,2-dihydro-isoquinolin-5-yl]-acetamide] |
| 930 nM | CN(C)CCn1ccc2c(NC(=O)Cc3ccc(Cl)cc3C(F)(F)F)cccc2c1=O [Compound 1611] |
